# From US20240115670A1, “FIBROBLAST ACTIVATION PROTEIN MODULATION TO ALTER IMMUNE CELL MIGRATION AND TUMOR INFILTRATION” (Georgetown University, priority 2021, published 2024)
# “Also recorded” adds a separate entry of the source.
# Tests used:
# NK92-GFP cells = assay: NK92-GFP infiltration into PDAC tumor spheroids; type: cell-based, human; settings: 10 uM Cpd60, 4 hours
# Experimental: PSC or PANC-1 spheroids were generated by plating 10,000 cells in a 0.1% agarose coated U-bottomed 96-well plate. PSC+PANC-1 spheroids were generated by plating 5,000 cells of each cell type. Aggregation was promoted by centrifuging the cells at 1000 rpm for 5 minutes. Cells incubated overnight at 37° C. The next day, 1,000 NK92-GFP cells were added per well and incubated for 4 hours at 37° C. Spheroids were imaged using the Olympus IX-71 Inverted Epifluorescent Microscope at 5×. Images were analyzed in FIJI. All images underwent identical contrast enhancement and background reduction. Then a line was drawn from spheroid edge to spheroid center and GFP intensity along that line was measured. Graphs of resulting data and statistical analysis were generated in Graphpad Prism 9.
# PANC-1 cell clusters = assay: NK cell lysis of PANC-1 clusters in 3D matrix (cleaved caspase 3); type: cell-based, human; settings: 10 uM Cpd60
# Experimental: 3D clusters were generated, embedded and stained as previously described. In brief, clusters were generated by plating 1,000 cells per well into 96-well Nunclon Sphera low adhesion plates (Thermo Scientific, cat #174925) and incubated overnight at 37° C. The following day, 6 clusters were embedded into an ECM containing 2,000 NK cells and plated into one well of a Nunc Lab-Tek II 8-well chamber slide (ThermoScientific, cat #154534PK). The ECM mixture consisted of 20% growth factor reduced Matrigel (Corning, 10-12 mg/ml stock concentration, #354230) and 80% rat tail collagen type I at 3 mg/mL (gibco, A1048301). Cells were either imaged for the following 24 hours every 30 minutes using the Zeiss LSM800 scanning confocal microscope or allowed to incubate overnight at 37° C. After 24 hours, cells in matrix were fixed with 5.4% formalin for 1 hour, permeabilized with 0.5% Triton-X and blocked using goat serum. For invasion assays, NK-92-GFP cells were stained with anti-GFP (ThermoFisher, cat #A-11122). For the cell lysis assays clusters were stained using anti-cleaved caspase 3 (Cell Signaling, cat #9661). Hoechst 33342, phalloidin, and secondary antibodies labeled with Alexa Fluor 488 nm, 546 nm, 647 nm, or 680 nm (Invitrogen) were used.
# 3D clusters were generated, embedded and stained as previously described (34, 35). […]
# DPPIV = target: T1, DPPIV (Homo sapiens, UniProt P27487); assay: Fluorescent peptide dipeptidyl peptidase activity assay; type: biochemical; settings: fluorescent peptide substrate
# T1 construct: purchased R&D systems 9168-SE
# Experimental: (§1) 100 mM stock of dipeptidyl peptidase substrate (Acetyl-Aka-Gly-Pro-AFC) (Anaspec, cat #AS-24126) was made by resuspending lyophilized substrate in DMSO. On the day of the assay, substrate stock was then diluted 1:1000 in activity assay buffer (50 mM Tris, 1 M NaCl, 1 mg/mL BSA, pH 7.5). A standard curve was generated using rFAP (R&D systems, cat #3715-SE-010) or rDPP4 (R&D systems, cat #9168-SE) and 50 uL of recombinant protein plus 50 uL of substrate was added to each well of a 96 Well Flat Clear Bottom White Polystyrene TC-Treated Microplates (Corning, cat #3903). The plate was incubated for 30 minutes at 37° C. then read on a PerkinElmer EnVision Multimode Plate Reader with 390-400 nm excitation and […] emission wavelengths. To test tumor lysates, 50-100 mg of snap frozen tumors were homogenized in 100-300 uL activity assay buffer using a Kimble Biomasher II closed system tissue grinder (DWK Life Sciences, cat #749625-0020). Protein concentration was determined using Bio-rad protein concentration DC Protein Assay Kit II (Bio-rad, cat #5000112). All samples were diluted to equal protein concentrations using activity assay buffer then added at 50 uL plus 50 uL substrate per well. Final concentration of FAP per well was calculated using the standard curve. Data were compiled and assessed for significance using GraphPad Prism 9 for an unpaired, two-tailed t-test.
# FAP [1] = target: T2, FAP (Homo sapiens, UniProt Q12884); assay: as above; type: biochemical; settings: fluorescent peptide substrate
# T2 construct: purchased R&D systems 3715-SE-010
# Experimental: as §1
# PANC-1 cells = assay: NK cell lysis of PANC-1 cells in 2D cocultures; type: cell-based, human
# FAP [2] = settings: mouse, in vivo; cited from earlier work
# T2 sequence (Q12884 whole entry): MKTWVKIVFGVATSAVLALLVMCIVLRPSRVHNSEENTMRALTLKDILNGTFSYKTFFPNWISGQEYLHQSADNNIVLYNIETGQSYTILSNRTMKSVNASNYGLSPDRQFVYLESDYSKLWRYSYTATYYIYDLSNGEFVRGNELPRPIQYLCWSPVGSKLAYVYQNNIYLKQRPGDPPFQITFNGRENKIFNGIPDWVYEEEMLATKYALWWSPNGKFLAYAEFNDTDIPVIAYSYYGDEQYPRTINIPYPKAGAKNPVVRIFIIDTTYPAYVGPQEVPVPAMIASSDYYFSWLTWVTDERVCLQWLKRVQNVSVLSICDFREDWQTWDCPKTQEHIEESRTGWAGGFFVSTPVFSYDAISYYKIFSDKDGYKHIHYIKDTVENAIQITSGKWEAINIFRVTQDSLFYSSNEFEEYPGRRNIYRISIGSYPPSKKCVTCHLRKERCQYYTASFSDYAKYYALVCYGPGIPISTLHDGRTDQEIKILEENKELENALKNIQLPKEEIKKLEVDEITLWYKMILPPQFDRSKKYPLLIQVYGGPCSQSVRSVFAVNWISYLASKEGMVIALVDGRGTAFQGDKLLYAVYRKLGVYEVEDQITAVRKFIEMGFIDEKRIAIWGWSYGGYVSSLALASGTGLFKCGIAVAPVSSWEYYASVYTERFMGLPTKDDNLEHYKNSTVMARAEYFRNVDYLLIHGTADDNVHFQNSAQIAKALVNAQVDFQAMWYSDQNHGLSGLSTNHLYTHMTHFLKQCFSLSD
# T1 sequence (P27487 whole entry): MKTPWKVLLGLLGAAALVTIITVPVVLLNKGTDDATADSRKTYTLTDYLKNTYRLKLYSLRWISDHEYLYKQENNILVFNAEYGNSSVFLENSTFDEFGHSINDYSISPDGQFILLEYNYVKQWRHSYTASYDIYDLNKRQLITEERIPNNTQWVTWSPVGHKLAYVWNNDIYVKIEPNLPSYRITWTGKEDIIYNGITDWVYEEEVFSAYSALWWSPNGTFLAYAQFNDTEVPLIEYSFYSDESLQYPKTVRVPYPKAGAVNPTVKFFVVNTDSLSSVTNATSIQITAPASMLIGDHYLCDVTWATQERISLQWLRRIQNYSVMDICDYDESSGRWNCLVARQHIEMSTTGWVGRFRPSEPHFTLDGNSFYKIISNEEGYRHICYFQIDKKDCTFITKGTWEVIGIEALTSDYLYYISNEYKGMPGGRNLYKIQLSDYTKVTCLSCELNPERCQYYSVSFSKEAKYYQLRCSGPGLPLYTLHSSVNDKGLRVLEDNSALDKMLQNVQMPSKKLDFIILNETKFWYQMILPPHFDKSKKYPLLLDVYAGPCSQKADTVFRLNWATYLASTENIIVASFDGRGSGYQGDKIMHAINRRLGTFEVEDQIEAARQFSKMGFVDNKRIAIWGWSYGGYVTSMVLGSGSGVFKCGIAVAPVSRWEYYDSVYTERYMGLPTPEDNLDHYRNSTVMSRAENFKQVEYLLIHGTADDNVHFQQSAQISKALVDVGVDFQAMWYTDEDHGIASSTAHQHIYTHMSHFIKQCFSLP
smiles,measurement,setting,value
N#C[C@@H]1CC(F)(F)CN1C(=O)CNC(=O)c1ccnc2ccccc12 [Cpd60],NK cell content in PANC-1 spheroids,NK92-GFP cells; any region,no effect
same,NK cell content in PSC spheroids,NK92-GFP cells; mid-edge and mid-center regions,significantly reduced
same,NK cell content in PSC+PANC-1 spheroids,NK92-GFP cells; mid-edge region,significantly reduced
same,PANC-1 cell apoptosis (cleaved caspase 3) in 3D cultures with NK92,PANC-1 cell clusters; NK92 cells,significantly reduced
same,donor NK cell lysis of PANC-1 cells in 3D,"PANC-1 cell clusters; NK cells from two donors, normalized to cluster area",reduced
same,inhibition of DPPIV dipeptidyl peptidase activity,DPPIV,"but not FAP's most closely related protein, DPPIV; also recorded: not DPPIV"
same,inhibition of FAP dipeptidyl peptidase activity,FAP [1],inhibits FAP
same,PANC-1 cell apoptosis in 2D cell cocultures with NK92,PANC-1 cells,no effect
same,effect on NK cell viability,NK cell line,no effect
same,FAP inhibition in murine models,FAP [2],selectively and completely inhibits FAP
